{"source": "patent US20240122957A1", "about": "“USE OF NICOTINAMIDE MONONUCLEOTIDE (NMN) FOR THE PREVENTION AND/OR TREATMENT OF RHEUMATOID ARTHRITIS, AND CORRESPONDING COMPOSITIONS” (NUVAMID SA, priority 2019, published 2024)", "key": {"[1]": {"system": "C57BL6/J mice treated with K/BxN serum (RA model)", "assay": "K/BxN serum-induced RA model in mice (clinical score, paw thickness, paw photographs)", "assay_type": "in vivo", "description": "Here, NMN was used in zwitterionic form. […] Dexamethasone was administered subcutaneously."}, "[2]": {"conditions": "in vivo", "method": "(§1) In brief, 8-week-old female C57BL6/J mice, weighing between 18-20 g on day 0 of the experiments, were divided into 4 group of 10 mice each: (i) a control group, in which the mice were treated with vehicle, i.e. a 0.9% NaCl solution (10 mL/kg), marked ‘Vehicle’; (ii) a group of mice treated with K/BxN serum (10 mL/kg), marked ‘KBxN’; (iii) a group of mice treated with K/BxN serum+dexamethasone (1 mg/kg), marked ‘KBxN+dexamethasone’; and (iv) a group of mice treated with K/BxN serum+NMN (185 mg/kg), marked ‘KBxN+NMN’.\n(§2) The administration of this serum induced chronic joint inflammation in mice in order to mimic RA. […] Here, NMN was used in zwitterionic form. KBxN serum and NMN were administered intraperitoneally to the nice. Dexamethasone was administered subcutaneously.\n(§3) The mice were treated for 9 days under the conditions set forth supra. Photos of the paws of the mice were taken on the 6th day of treatment. […] The clinical score and weight of the mice were measured daily. The clinical score was determined by measuring the thickness of each of the front and rear paws of the mice, and adding the associated score according to table 1 infra:\n(§4) The statistical analysis of the results was carried out using two-factor ANOVA combined with the Dunnett multiple comparison test."}, "[3]": {"assay": "Weight and tolerance of mice in the K/BxN serum RA model", "method": "as §1, §2, §3, §4"}}, "note": "Entries after “also recorded” stand apart in the source; their conditions may differ. Where two headings read alike, the source gives them in different places."}
{"smiles": "NC(=O)c1ccc[n+]([C@@H]2O[C@H](COP(=O)([O-])O)[C@@H](O)[C@H]2O)c1", "note": "[NMN, nicotinamide mononucleotide]", "values": [{"measurement": "paw swelling (photographs of the paws)", "setting": "[1]; day 6 of treatment, compared to mouse treated with K/BxN, FIG. 4", "result": "substantially reduces paw swelling"}, {"measurement": "average paw thickness (ankle joint inflammation)", "setting": "[1]; versus KBxN group, NMN 185 mg/kg intraperitoneally, dexamethasone 1 mg/kg subcutaneously, FIG. 3", "result": "significantly reduced ankle joint inflammation starting on day 5"}, {"measurement": "average clinical score", "setting": "[1]; versus KBxN group, NMN 185 mg/kg intraperitoneally, dexamethasone 1 mg/kg subcutaneously, measured daily, 9 days, FIG. 2", "result": "significant reduction in clinical score starting on day 5; also recorded: pronounced starting on day 8"}, {"measurement": "paw appearance compared to mouse treated with vehicle (photographs)", "setting": "[2]", "result": "volume similar to that of the mouse treated with vehicle"}, {"measurement": "tolerance", "setting": "[3]; K/BxN serum-treated mice, NMN 185 mg/kg intraperitoneally, 9 days, FIG. 1", "result": "well tolerated"}]}
{"smiles": "C[C@@H]1C[C@H]2[C@@H]3CCC4=CC(=O)C=C[C@]4(C)[C@@]3(F)[C@@H](O)C[C@]2(C)[C@@]1(O)C(=O)CO", "note": "[dexamethasone]", "values": [{"measurement": "paw appearance compared to mouse treated with vehicle (photographs)", "setting": "[3]; day 6 of treatment, FIG. 4", "result": "much more slender than that of the mouse treated with vehicle"}, {"measurement": "average weight of mice (weight loss)", "setting": "[3]; relative to KBxN group, NMN 185 mg/kg intraperitoneally, dexamethasone 1 mg/kg subcutaneously, 9 days, FIG. 1", "result": "additional and significant weight loss"}]}
